From patent publication US10292991B2, “Small molecule therapeutic compounds that reduce the incidence of intracerebral hemorrhage and brain microhemorrhages” (St. Michaels Hospital, priority 2016, dated 2019)
Structures can show the parent of a compound that is named as a salt. Where two headings read alike, the source gives them in different places.

How the values were obtained:
[1] = system: mice treated with LPS; experiment: Atorvastatin plus LPS in mice: mortality and large hemorrhages; type: in vivo; settings: for mortality: n=5
Text: While the present invention has been described with reference to the specific embodiments thereof it should be understood by those skilled in the art that various changes may be made and equivalents may be substituted without departing from the true spirit and scope of the invention. In addition, many modifications may be made to adopt a particular situation, material, composition of matter, process, process step or steps, to the objective spirit and scope of the present invention. All such modifications are intended to be within the scope of the claims appended hereto.

[2] = system: CCM3 (Ccm3) mRNA; experiment: qRT-PCR of CCM3 mRNA in atorvastatin-treated zebrafish larvae; type: in vivo, zebrafish (Danio rerio); settings: 1 μmol/L atorvastatin alone
Method: qRT-PCR was used to assess relative expression of selected genes (an average of two biological trial and three technical replicates and each trial is a pool of 60 larvae/treatment), using β-actin as the housekeeping gene control. 3 dpf, Tg(Flk:GFP; Gata:dsRed) zebrafish larvae were used for RNA extraction and cDNA synthesis. Atorvastatin and drug treatment were performed as previously mentioned in drug screening. Total RNA was extracted from these larvae (a pool of 50-60 larvae/treatment) using the RNeasy extraction kit (Qiagen, Mississauga, ON, CAN) and treated with DNase. The concentration of total RNA was determined spectrophotometrically at 260/280 nm using a NanoDrop™ spectrophotometer. First-strand cDNA was synthesized from 1 μg of total RNA using random hexamer primers.
In each case, forward primer is shown on the top and reverse primer on the bottom.
PCR was carried out in a 20 μl total volume and included 1×PCR buffer, 1.25 mM MgCl2, 0.25 mM dNTP, 1 U Taq polymerase, 0.5 μmol/L forward, and reverse primers and 1 μl cDNA.

[3] = system: zebrafish larvae; experiment: Morpholino injection to induce hemorrhage in zebrafish larvae; type: in vivo; settings: for Hemorrhage: at optimum injected amount, 3 dpf larvae, n = 150-250 per condition
Method: (§1) Morpholino oligonucleotides (MOs) were custom-synthesized by Gene Tools (Carvalis, Oreg.); their sequences are shown in Table 1.
(§2) Danieau buffer (58 mM NaCl, 0.7 mM KCl, 0.4 mM MgSO4, 0.6 mM Ca(NO3)2, 5.0 mM HEPES, pH 7.6) was used to dilute the MO solutions to 0.2 mM final concentration. Individual wells were placed on a 1.0% agarose plate, in which the embryos were positioned. Afterwards, the MO solution was injected through the cell yolk into embryos of 1 to 4 cell-stage. The injected quantities varied from 0.5 to 15 ng.
(§3) bbhm292 zebrafish mutant has a hypomorphic mutation in βPix, resulting in ICH/BMH and hydrocephalus. The MO is βPixexon6-MO which blocks splicing of exon 6 and results in premature protein termination. […] Higher doses of βPixexon6-MO (up to 8 ng) result in a lack of blood circulation, and therefore no ICH/BMH was detected. Injection of 8 ng results in complete missplicing of βPix and therefore a null phenotype, whereas lower doses retain some normally spliced βPix. The βPixexon6-MO sequence is 5′-[…]-3′ [SEQ ID NO: 1]. 3Pixexon6-MO was injected into the embryos at the 1-2 cell stage, and compounds were added 12 hpf.
Another MO was designed to block the splice-donor sites after exon 8 in pak2a. Pak2a is the gene mutated in the rhdmi149 zebrafish mutant that develops ICH/BMH. The pak2a-MO sequence is 5′-[…]-3′ (SEQ ID NO: 2). Eight pg of pak2a-MO was injected per embryo, resulting in […] of embryos with ICH/BMH with low mortality (FIGS. 12 and 14).
Next, optimum amount of each morpholino was determined. The goal was to induce an acceptable percentage of hemorrhage (ideally between 40-80%), without having toxicity from morpholino injection.

[4] = system: β-Pix MO-induced hemorrhage in zebrafish; experiment: βPix morpholino-induced hemorrhage in zebrafish, rescue by drugs; type: in vivo, zebrafish (Danio rerio); settings: for Efficacy on β-Pix MO Hemorrhage: inhibition of β-Pix MO-induced hemorrhage
Method: as §1, §2, §3
(§4) The first three morpholino pairs were good for the efficacy study. Efficacy assays were performed using Artemether (ARM, Sigma) and artemesunate (ART, GMP). […] Treating these morphants with the drugs rescued the ICH phenotype.

[5] = system: brain hemorrhage induced by 1 μM atorvastatin in zebrafish; experiment: Atorvastatin-induced brain hemorrhage (ICH) model in zebrafish, rescue by drugs; settings: for Efficacy on atorvastatin Hemorrhage: ATV model induced by 1 μmol/L atorvastatin, inhibition of hemorrhage
Method: Zebrafish were set up the night before the experiment day. In the morning of the experimental day, we put breeders together for mating and fertilization. 6 hours post-fertilization (hpf), statins was added into a 96-well plate holding 100 μl water with 7 to 8 fish eggs in each well, which was optimized through a serial pilot experiments. Statins were dissolved in DMSO and diluted with 0.5% of DMSO water into a working solution. 100 μl water containing 0.5% of DMSO was the medium for all wells in the final assessment.
For screening NIH compound libraries, 5 μM of each of the drugs from the library was added at 24 hpf into wells containing fish eggs treated with 1 μM ATV since 6 hpf. Hemorrhage positive control wells were treated with ATV but not treated with any drugs. Negative controls were not treated with any chemicals (fish with 0.5% of DMSO water). Geranylgeranyl pyrophosphate (GGPP, 4 mg/L) was used as positive rescue control.
Brain hemorrhage was assessed 72 hpf (66 hours after addition of statins) using stereomicroscopy by two observers. Percentage of brain hemorrhage was used as final readout. Compounds showing more than 70% of rescue of the brain hemorrhages in the initial test were re-tested to generate a final list of hits from the library.
All subsequent EC50 assays of positive compounds were performed with protocols established and optimized during the screening.

[6] = system: Hmgcrb - splice morpholino-induced hemorrhage in zebrafish; experiment: Hmgcrb morpholino-induced hemorrhage in zebrafish, rescue by drugs; type: in vivo, zebrafish (Danio rerio)
Method: as §2, §4

[7] = system: Cdh5 - exon2 morpholino-induced hemorrhage in zebrafish; experiment: Cdh5 (VE-cadherin) morpholino-induced hemorrhage in zebrafish, rescue by drugs; type: in vivo, zebrafish (Danio rerio); settings: result in words, no EC50
Method: as §2
Panels A & B: Stable EC junctions are maintained by a Cdc42-dependent and VE-cadherin-mediated cell-cell adhesion. VE cadherins are found on the surfaces of EC cell-cell junctions. VE-cadherins are associated with β- and α-catenins at their cytoplasmic domains, which connect them to the actin-based cytoskeleton (blue circles). Cdc42 belongs to the Rho-family of small guanosine triphosphatases (GTPases), which are the main regulators of VE-cadherin-based cell-cell adhesion. The functions of hmgcrb, βPix, and pak2a in regulating junctional stability in zebrafish are shown. HNGCR mediated GGPP biosynthesis regulates Cdc42 prenylation. βPix is a GEF that increases CDC42 affinity for GTP. Pak2 is an effector of Cdc42, which regulates actin filament organization.
Suppression of VE-cadherin induces hemorrhage.

[8] = system: bbh mutant zebrafish (mutation in βPix), spontaneous ICH; experiment: bbh (bubblehead) mutant genetic model of brain hemorrhage; type: in vivo, zebrafish (Danio rerio); settings: for EC50: n = 15-20 larvae per condition, 1-3 times per compound, read-out: EC50 to rescue brain hemorrhage, bbh Mutant Model
Text: A specific zebrafish line with a gene mutation called bubblehead (bbh) was used. This line has spontaneous ICH. Bubblehead phenotype is caused by a mutation in βPix. Adult homozygous zebrafish were viable and fertile. […] More than 85% of zebrafish larvae display an ICH phenotype.

[9] = system: Pak2a - exon8 morpholino-induced hemorrhage in zebrafish; experiment: Pak2a morpholino-induced hemorrhage in zebrafish, rescue by drugs; type: in vivo, zebrafish (Danio rerio); settings: result in words
Method: as §2
Another MO was designed to block the splice-donor sites after exon 8 in pak2a. Pak2a is the gene mutated in the rhdmi149 zebrafish mutant that develops ICH/BMH.
Efficacy assays were performed using Artemether (ARM, Sigma) and artemesunate (ART, GMP).

[10] = system: zebrafish larvae; experiment: Toxicity assay in zebrafish larvae (heart beat, blood flow, cardiac edema); type: in vivo, zebrafish (Danio rerio)
Method: The embryos were collected and distributed into a 96-well plate in 0.5% DMSO, similar to efficacy assays. […] Heart beat and blood flow were ranked from 3 (normal heart beat or blood flow) to 0 (no heart beat or blood flow). Cardiac edema was ranked from 0 (normal heart without edema) to −3 (severe cardiac edema). […] The ratio of TC50/EC50 was calculated in each case.
Heart beat and blood flow were ranked from 3 (normal heart beat or blood flow) to 0 (no heart beat or blood flow). Cardiac edema was ranked from 0 (normal heart without edema) to −3 (severe cardiac edema). […] Data is expressed as mean±SEM from 3 experiments.

[11] = drug from Sequoia Research (UK)
[12] = drug from Sigma, 3 dpf larvae, drug added 24 hpf

CC(C)c1c(C(=O)Nc2ccccc2)c(-c2ccccc2)c(-c2ccc(F)cc2)n1CC[C@@H](O)C[C@@H](O)CC(=O)O [Atorvastatin, atorvastatin calcium salt]
mortality ([1]; atorvastatin 50 mg/kg in addition to LPS 5 mg/kg, 24 hours after treatments): 100% | Number of large hemorrhages caused by LPS ([1]; mouse, in vivo): significantly increased | mortality ([1]; statin alone, 24 hours): did not cause any mortality | CCM3 transcription level (qRT-PCR) after inducing hemorrhage [2]: decrease

Hmgcrb - splice: morpholino 5′-AACTGCATTCATAAACTCACCCAGT-3′ (all phosphorodiamidate morpholino (PMO))
Hemorrhage [3]: 67.9%

CC(C)[C@]12O[C@H]1[C@@H]1O[C@]13[C@]1(O[C@H]1C[C@@]1(C)C4=C(CC[C@]31C)C(=O)OC4)[C@H]2O [Tripolide]
Efficacy on β-Pix MO Hemorrhage [4]: No effect | Efficacy on atorvastatin Hemorrhage [5]: ++++ (One + sign represents 20% inhibition on 1 μmol/L ATV or β-Pix MO-induced hemorrhage.)

Artesunate
ICH in βPixexon6-MO injected embryos ([4]; 5 μmol/L, compounds added 12 hpf): prevented ICH | Efficacy on β-Pix MO Hemorrhage [4]: +++++ (One + sign represents 20% inhibition on 1 μmol/L ATV or β-Pix MO-induced hemorrhage.) | ICH/BMH after MO-mediated inhibition of hmgcrb ([6]; result in words): prevented | Rescue of hemorrhage induced by Cdh5 - exon2 morpholino [7]: rescue was observed | EC50 [8]: 140 nM | Rescue of hemorrhage / ICH phenotype in bbh mutants ([8]; result in words): rescues the ICH phenotype | Efficacy on atorvastatin Hemorrhage [5]: +++++ (One + sign represents 20% inhibition on 1 μmol/L ATV or β-Pix MO-induced hemorrhage.) | EC50 ([5]; read-out: EC50 (in nmol/L) on atorfvastatin model (μmol/L), Table 3, 1 μmol/L atorvastatin, 3 to 4 experiments): 211 nmol/L | ICH/BMH after treatment with pak2a-MO [9]: dose-dependently reduced

C[C@H]1[C@H](OC(=O)CCC(=O)O)O[C@@H]2O[C@@]3(C)CC[C@H]4[C@H](C)CC[C@@H]1[C@@]24OO3 [Artesunate]
TC50 (Blood flow) ([10]; GMP-Artesunate): 794.4 nM | TC50 (Edema) ([10]; GMP-Artesunate): 3196 nM | TC50 (Heart beat) ([10]; GMP-Artesunate): 2525 nM | TC50 (Blood flow) [10, 11]: 1036 nM | TC50 (Edema) [10, 11]: 937.8 nM | TC50 (Heart beat) [10, 11]: 9539 nM | TC50 (Blood flow) [10, 12]: 741.5 nM | TC50 (Edema) [10, 12]: 5367 nM | TC50 (Heart beat) [10, 12]: 8884 nM | EC50 ([4]; Table 6, read-out: EC50 to rescue hemorrhage induced by βPix - exon6 morpholino): 95.6 ± 27.9 nM | EC50 ([6]; Table 6): 167 ± 9.3 nM | Rescue of hemorrhage induced by Cdh5 - exon2 morpholino [7]: Rescue effect | EC50 [8]: 127 nM | EC50 ([5]; read-out: EC50 to rescue brain hemorrhage, Statin Model, Table 4, n = 15-20 larvae per condition, three times per compound): 182 nmol/L

Cdh5 - exon2: morpholino 5′-TACAAGACCGTCTACCTTTCCAATC-3′ (antisense; all phosphorodiamidate morpholino (PMO))
Cardiac Edema ([3]; at optimum injected amount (1.0 ng)): 35.0% (Cardiac Edema) | Hemorrhage [3]: 39.4%

GGTasel: morpholino 5′-CACGCGGTGTGTGGACTCACGGTCA-3′ (all phosphorodiamidate morpholino (PMO))
Hemorrhage [3]: 11.4% (Faint)
